The record followed here is ChEMBL document CHEMBL1201862, “PubChem BioAssay data set” (2004).

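Compound exposure: 48 hours, 5 concentrations, 96-well plates. GI50 is the concentration that inhibits growth by half.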 Activity calls are given as the source filed them. Cut-off read from the data, not from the text of the source: active = GI50 up to about 1.1 µM and inactive = higher.

Holding throughout (assay): NCI-60 cell line screen, 48 h
The subject of assay [1] is A549.
The test system of assay [2] is HCT-15.
In assay [3] the test system is HOP-62.
The subject of assay [4] is KM12.
For assay [5], the system named is M14.
Assay [6] deals with NCI-H226.
The test system of assay [7] is NCI/ADR-RES.
Assay [8] deals with OVCAR-3.
In assay [9] the test system is OVCAR-4.
For assay [10], the system named is OVCAR-8.
For assay [11], the system named is PC-3.
Assay [12] has as its system SF-539.
In assay [13] the test system is SK-MEL-2.
Assay [14] concerns SN12C.
Assay [15] concerns SR.
Assay [16] relates to U-251.
For assay [17], the system named is UACC-257.
Assay [18] deals with UACC-62.
The test system of assay [19] is UO-31.
Assay [20] has as its system RPMI-8226.

Take `COc1cc(C2=C(c3cc(OC)c4ccccc4c3OC)C(=O)c3ccccc3C2=O)c(OC)c2ccccc12`: the GI50 in assay [1] is > 100 µM (inactive); in assay [2] it was more than 100 µM; in assay [3] it was > 100 µM (inactive); in assay [4], > 100 µM (inactive); in [5] it was 82.4 µM (inactive); in assay [6], 59.6 µM (inactive). The GI50 was > 100 µM (inactive) in assay [7]; > 100 µM (inactive) in assay [8]; 1.14 µM (inactive) in assay [9]; > 100 µM (inactive) in assay [10]; > 100 µM (inactive) in assay [11]; > 100 µM (inactive) in assay [12]. Also, the GI50 in assay [13], in assay [14], in [15], in assay [16], in assay [17] and in [18] was > 100 µM (inactive) each time. In addition, in assay [19], the GI50 is > 100 µM (inactive).
`Cc1c(Cl)ccc2c(=O)c3cccc(CC(=O)O)c3oc12`: the GI50 in [1] is > 100 µM (inactive); in assay [2] it was more than 100 µM; in [3] it was > 100 µM (inactive); in [4] it was > 100 µM (inactive); in assay [5], > 100 µM (inactive); in assay [6], > 100 µM (inactive). Moreover, the GI50 in [7], in assay [8], in assay [9], in assay [10], in assay [11] and in [20] was > 100 µM (inactive) throughout. Further, the GI50 in assay [12], in [13], in [14], in assay [15], in assay [16] and in [17] was > 100 µM (inactive) throughout. The GI50 in assay [19] is > 100 µM (inactive).
For `CC(=O)NC1C(OCc2ccccc2)OC(CO)C(O)C1OCC(=O)NC(C)C(=O)NC(CCC(=O)OCCNC(=O)c1cccc2cc3ccccc3nc12)C(N)=O` (stereo unspecified), the GI50 is 6.11 µM (inactive) in assay [1]; 13.9 µM in assay [2]; 24.3 µM (inactive) in [3]; 21.9 µM (inactive) in [4]; 20.6 µM (inactive) in [5]; 18.5 µM (inactive) in assay [6]. Also, the GI50 in [7] was 21.6 µM (inactive); in assay [8], 20.5 µM (inactive); in assay [9], 20.8 µM (inactive); in assay [10] it was 18 µM (inactive); in assay [11] it was 27.4 µM (inactive); in assay [20], 1.33 µM (inactive). For the same molecule, the GI50 is 26.4 µM (inactive) in assay [13]; 22.3 µM (inactive) in assay [14]; 8.22 µM (inactive) in assay [15]; 18.4 µM (inactive) in assay [16]; 28.2 µM (inactive) in [17]; 15.7 µM (inactive) in assay [18]. For the same molecule, the GI50 in assay [19] is 14.5 µM (inactive).
Regarding `Cc1ccc(N)c(S)c1`, the GI50 in assay [1] is 21.5 µM (inactive); in assay [2], 16.7 µM; in [3], 21.5 µM (inactive); in assay [4] it was 18.3 µM (inactive); in assay [5] it was 16.9 µM (inactive); in [6] it was 22 µM (inactive). For the same molecule, the GI50 in assay [7] was 24 µM (inactive); in assay [8], 21.3 µM (inactive); in [9], 20 µM (inactive); in [10], 17.1 µM (inactive); in assay [11], 15.3 µM (inactive); in assay [12] it was 17.5 µM (inactive). In addition, the GI50 was 17.2 µM (inactive) in [13]; 1.7 µM (inactive) in assay [14]; 18 µM (inactive) in assay [15]; 15.2 µM (inactive) in assay [16]; 23.3 µM (inactive) in [17]; 17.6 µM (inactive) in assay [18]. Besides, in assay [19], the GI50 is 13.8 µM (inactive).
As to `CC1=C(C)C2(C#N)C(=O)N3C(=NC(c4ccccc4)NC3c3ccccc3)C2(C#N)C(c2ccccc2)N1` (stereo unspecified), the GI50 was > 100 µM (inactive) in [1]; more than 100 µM in assay [2]; > 100 µM (inactive) in [3]; > 100 µM (inactive) in assay [4]; > 100 µM (inactive) in assay [5]; > 100 µM (inactive) in [6]. Moreover, the GI50 in [7], in assay [9], in assay [10], in assay [11], in [20] and in [13] was > 100 µM (inactive) each time. For the same molecule, the GI50 in assay [14], in assay [15], in [16], in [17], in [18] and in assay [19] was > 100 µM (inactive) in each case.
For the molecule `CCNC1=C(NC(=O)c2ccccc2)C(=O)c2ccccc2C1=O`, the GI50 was 67.6 µM (inactive) in assay [1]; 18.5 µM in assay [2]; 66.2 µM (inactive) in assay [3]; 30.4 µM (inactive) in assay [4]; 26.2 µM (inactive) in assay [5]; 27.9 µM (inactive) in assay [6]. For the same molecule, the GI50 is 16.7 µM (inactive) in [7]; 25.1 µM (inactive) in [8]; 81.3 µM (inactive) in assay [9]; 46.8 µM (inactive) in assay [10]; 18.2 µM (inactive) in assay [11]; > 100 µM (inactive) in assay [20]. The GI50 is 48.8 µM (inactive) in assay [12]; 42.8 µM (inactive) in assay [14]; 40.2 µM (inactive) in assay [15]; 33 µM (inactive) in assay [16]; 23.4 µM (inactive) in [17]; 20 µM (inactive) in [18].
As for `CC(=O)OCC12CN(C#N)C3C4COC(CC41)C1(C(=O)N(C)c4ccccc41)C32` (stereo unspecified), the GI50 in assay [1] was 28.4 µM (inactive); in [2] it was 17.1 µM; in assay [3], 24.6 µM (inactive); in assay [4] it was 36.5 µM (inactive); in assay [5], 20.2 µM (inactive); in assay [6], 15.8 µM (inactive). The GI50 in assay [7] is 22.2 µM (inactive); in assay [8], 3.58 µM (inactive); in assay [9] it was 16.1 µM (inactive); in [10], 19.5 µM (inactive); in [11], 33.2 µM (inactive); in assay [20], 9.73 µM (inactive). Moreover, the GI50 in [13] was 24.9 µM (inactive); in assay [14], 20.3 µM (inactive); in assay [15], 14.6 µM (inactive); in assay [16], 56.1 µM (inactive); in assay [17] it was 16.9 µM (inactive); in assay [18], 22.6 µM (inactive). In [19], the GI50 is 13.3 µM (inactive).
As for `CC1NCCC(CC(=O)O)C1CC(=O)O` (stereo unspecified), the GI50 in assay [1] was > 100 µM (inactive); in assay [2], more than 100 µM; in assay [3], > 100 µM (inactive); in assay [4], > 100 µM (inactive); in assay [5] it was > 100 µM (inactive); in assay [6], > 100 µM (inactive). For the same molecule, the GI50 in [7], in assay [8], in [9], in assay [10], in [11] and in assay [20] was > 100 µM (inactive) in each case. Also, the GI50 in assay [13], in [14], in assay [15], in assay [16], in [17] and in assay [18] was > 100 µM (inactive) in each case. In assay [19], the GI50 was > 100 µM (inactive).
Take `C#CC(O)/C=C/C(O)CCCC(O)CC#CC(O)C#CC(O)CCCC(O)/C=C/CCCC(=O)CCCCCCCCCCCCCCCC(O)C(O)C#CC(=O)O` (stereo unspecified): the GI50 is > 50 µM (inactive) in assay [1]; more than 50 µM in [2]; > 50 µM (inactive) in assay [3]; > 50 µM (inactive) in assay [4]; > 50 µM (inactive) in assay [5]; > 50 µM (inactive) in assay [6]. Besides, the GI50 in assay [7] is > 50 µM (inactive); in assay [9], 12.5 µM (inactive); in [10], > 50 µM (inactive); in assay [11], > 50 µM (inactive); in assay [20] it was > 50 µM (inactive); in [13], > 50 µM (inactive). Moreover, the GI50 in assay [14] is > 50 µM (inactive); in assay [15], 19.3 µM (inactive); in assay [16], > 50 µM (inactive); in assay [17], > 50 µM (inactive); in assay [18], > 50 µM (inactive); in assay [19] it was 10.8 µM (inactive).
`O=C(/C=C/c1ccc2c(c1)OCO2)NCc1ccco1`: the GI50 in assay [1] was > 100 µM (inactive); in assay [2] it was more than 100 µM; in assay [3] it was > 100 µM (inactive); in [4], > 100 µM (inactive); in assay [5] it was > 100 µM (inactive); in assay [6], > 100 µM (inactive). For the same molecule, the GI50 is > 100 µM (inactive) in assay [7]; 82.2 µM (inactive) in assay [8]; 41.6 µM (inactive) in [9]; > 100 µM (inactive) in assay [10]; > 100 µM (inactive) in assay [11]; 64.9 µM (inactive) in assay [12]. Further, the GI50 is > 100 µM (inactive) in [13]; > 100 µM (inactive) in [14]; 5.09 µM (inactive) in [15]; > 100 µM (inactive) in assay [16]; > 100 µM (inactive) in assay [17]; 74.6 µM (inactive) in assay [18]. In addition, the GI50 in assay [19] was 67.1 µM (inactive).
For `COc1ccc2c(c1)N=C1CSC(c3cc([N+](=O)[O-])ccc3Cl)N1C2` (stereo unspecified), the GI50 in assay [1] is 30.9 µM (inactive); in assay [2], 28.6 µM; in assay [3], 32.1 µM (inactive); in [4], 19 µM (inactive); in assay [5], 27.5 µM (inactive); in [6], 62.8 µM (inactive). Also, the GI50 was 23.4 µM (inactive) in assay [7]; 23.8 µM (inactive) in [9]; 29 µM (inactive) in [10]; 21.5 µM (inactive) in assay [11]; 17.4 µM (inactive) in [20]; 28.5 µM (inactive) in [12]. Further, the GI50 in assay [13] was 18.2 µM (inactive); in assay [14], 16.3 µM (inactive); in assay [15], 26.5 µM (inactive); in assay [16], 25.6 µM (inactive); in assay [17] it was 15.8 µM (inactive); in assay [18], 18.8 µM (inactive). Besides, the GI50 in assay [19] is 19.6 µM (inactive).
